Assay results reported in US20190111137A1, “METHODS FOR ANTAGONISTS OF A NON-SELECTIVE CATION CHANNEL IN NEURAL CELLS” (University of Maryland, Baltimore, priority 2007, published 2019).
Several values for one entry are separate records, joined by “and”; a condition that tells them apart may be missing. Identical values can stand only once. Entries after “also recorded” stand apart in the source; their conditions may differ.

What was measured:
TRPM4 = TRPM4 protein in bEnd.3 cells after 6-h exposure to TNFα (Western blot); assay type: cell-based, murine; conditions: 20 ng/ml
Protocol: TNFα causes up-regulation NCCa-ATP (putative TRPM4) channel in bEnd.3. In certain aspects of the invention, injury leads to NFκB activation, such as SCI, and can result in up-regulation of functional TRPM4 channels. Murine CNS microvascular endothelial cells (bEnd.3, ATTC, Rockville, Md.) were studied under control conditions and after 6-h exposure to the pro-inflammatory cytokine, TNFα (20 ng/ml), which activates NFκB. Cultures were immunolabeled for TRPM4 and TRPM5, the only 2 molecularly identified non-selective cation channels with exclusive monovalent conductivity. […] Immunolabeling for TRPM5 was negative. Western blots confirmed robust up-regulation of TRPM4 (3-fold increase, FIGS. 19C,19D).

[1] = test system: rat model of contusion SCI; test: Rat model of unilateral cervical spinal cord injury (SCI); assay type: in vivo; conditions: 24 h post-SCI
TRPM4 channel = conditions: read-out: glibenclamide block (EC50); cited from earlier work
[2] = test system: rat model of contusion SCI; conditions: as reported (Simard et al., 2007); cited from earlier work
[3] = test system: rodent models of ischemic stroke; conditions: cited from earlier work
[4] = constant infusion 75-200 ng/h; cited from earlier work
reactive astrocytes = conditions: cells exposed to Na azide to deplete ATP; cited from earlier work

| Compound | up-regulation of TRPM4 (Western blots) (TRPM4) | TRPM4 expression in cord (immunolabeling) [1] | EC50 (TRPM4 channel) | neurological function [2] | progressive hemorrhagic necrosis [2] | tissue loss [2] | reduction of mortality ([3]; massive ischemic stroke with malignant cerebral edema) | reduction of cerebral edema (excess water) ([3]; massive ischemic stroke with malignant cerebral edema, low-dose, post-ischemic) | reduction of lesion volume ([3]; stroke induced by thromboemboli with delayed spontaneous reperfusion) | predicted serum concentration [4] | blebbing associated with cytotoxic edema (reactive astrocytes) | membrane depolarization (reactive astrocytes) | necrotic cell death (reactive astrocytes) |
| --- | --- | --- | --- | --- | --- | --- | --- | --- | --- | --- | --- | --- | --- |
| TNFα | 3 fold | – | – | – | – | – | – | – | – | – | – | – | – |
| COc1ccc(Cl)cc1C(=O)NCCc1ccc(S(=O)(=O)NC(=O)NC2CCCCC2)cc1 [glibenclamide] | – | significantly reduced | 10 to 100 µM | significantly improves neurological outcome; also recorded: improves neurological function | significantly reduces progressive hemorrhagic necrosis | significantly reduces | half | half | half | 1-3 ng/ml and 2-6 nM | significantly reduces blebbing | blocks membrane depolarization | significantly reduces necrotic cell death |
